# Where “and” joins values, the source holds several entries; their conditions need not be identical. Equal values may be shown once. Entries after “also recorded” stand apart in the source; their conditions may differ. Non-standard residues stand in square brackets, D forms with d. Residues, ends and D or L forms follow the SMILES beside them. ξ: configuration not given here. *: point of attachment. Benzoyl(2,6-F2) = O=C(c1c(F)cccc1F)*; Benzoyl(4-F) = O=C(c1ccc(F)cc1)*; ξR = N=C(N)NCCCC(N)C(=O)O; Nle = CCCC[C@H](N)C(=O)O; Bz = O=C(c1ccccc1)*; CF3 = FC(F)(F)*
# What was measured:
# DENV2 NS2B:NS3pro [1] = molecular target: T1, DENV2 NS2B:NS3pro (Dengue virus type 2, UniProt P29990); assay: 19F NMR monitoring of inhibitor binding to wild-type NS2B:NS3pro; design: species or system serotype II Dengue virus (DENV2); settings: 298 K
# T1 construct: DENV2 NS3pro (1–185; amino acids 1476–1660 of the polyprotein); NS2B (containing amino acids 1394–1440 of the Dengue 2 polyprotein); His tag; made in house; host or cells: Escherichia coli BL21Star (DE3)
# Excerpt: The subside part of peptide types of inhibitors either improves or prevents correct binding with the enzyme in the most favourable way. One way to probe stereo-selectivity in enzymes is to study an inhibitor with the wrong stereochemistry around the carbon, Cα, of the P1 (Arg) (for abbreviation see Table 1). The key question is: could both isomers bind to NS2B:NS3pro complex? If yes, is there any difference in affinity between them. To challenge these questions two separated diastereomers of Ph-Bz-Lys-Lys-Arg-CF3-ketone (III) (Table 1) with low affinity were used to observe the binding. The isolated diastereomers were kept in solution with and without the NS2B/NS3 complex for two months with measuring at several points. For the first separated isomer (IIIa), only one ^19F resonance is observed at − 82.83 ppm in the unbound state (Fig. 1a). […]
# (§1) NMR experiments were acquired on Bruker Avance III spectrometers operating at 14.1 and 16.4 T at a temperature of 298 K. 2D ^1H-^15N TROSY -transverse relaxation optimized spectroscopy (TROSY) was used. ^19F experiments were acquired on a Bruker Avance III 16.4 T equipped with a QCIF CryoProbe, and internally referenced to the trifluoromethyl acetate counter ion (− 76.55 ppm). […] Protein detected experiments with ligand bound used a chemical shift perturbation (CSP) analysis was performed manually in CcpNmr Analysis 2.2.2 [60]. […]
# DENV2 NS2B:NS3pro [2] = molecular target: T1, DENV2 NS2B:NS3pro; assay: 19F NMR solvent isotope shift (H2O vs D2O), water accessibility of NS2B:NS3pro complex; design: species or system serotype II Dengue virus (DENV2); settings: inhibitor bound to DENV2 NS2B:NS3pro
# Experimental: The accessibility of water in the binding site of the complex with bound inhibitor was tested by studying the ^19F spectra of the complexes NS2B:NS3pro (II) in two different solvents: H2O and D2O (Fig. S2). […] This CSP was scaled versus the signals of the same group of the unbound ligand, ca 48 Hz (Fig. S2c). The conclusion is that ^19F nuclei of the benzene ring of the bound inhibitor are partly exposed to the solvent even in the bound state.
# The NS2B:NS3pro complex was concentrated in disposable centrifugal concentrators (e.g. Amicon Ultra centrifugal filter units) with a molecular weight cut-off of 10 kDa. The complex was stable during concentration and no leakage of NS2B occurred. Buffer was exchanged using gravity flow desalting columns (GE Healthcare). The NMR buffer contained 20 mM deuterated MES, 100 mM NaCl, 5 mM CaCl2, 0.02% NaN3, at pH 6.5. […]
# as §1
# DENV2 NS2B:NS3pro [3] = molecular target: T1, DENV2 NS2B:NS3pro; assay: 1H-15N TROSY chemical shifts/CSP, oxyanion hole and H51 of NS2B:NS3pro complexes; type: binding, serotype II Dengue virus (DENV2)
# Experimental: (§2) The NS2B:NS3pro complex was concentrated in disposable centrifugal concentrators (e.g. Amicon Ultra centrifugal filter units) with a molecular weight cut-off of 10 kDa. The complex was stable during concentration and no leakage of NS2B occurred. Buffer was exchanged using gravity flow desalting columns (GE Healthcare). The NMR buffer contained 20 mM deuterated MES, 100 mM NaCl, 5 mM CaCl2, 0.02% NaN3, at pH 6.5. The buffer-exchanged protein was concentrated to at least 0.3 mM. To obtain spectra in D2O buffer protein complex with inhibitor was lyophilized and dissolved adding only D2O water.
# (§3) NMR experiments were acquired on Bruker Avance III spectrometers operating at 14.1 and 16.4 T at a temperature of 298 K. 2D ^1H-^15N TROSY -transverse relaxation optimized spectroscopy (TROSY) was used. ^19F experiments were acquired on a Bruker Avance III 16.4 T equipped with a QCIF CryoProbe, and internally referenced to the trifluoromethyl acetate counter ion (− 76.55 ppm). For solvent isotope shift measurements the buffer was exchanged from 90% H2O to 90% D2O using centrifugation filters by following dilution of the sample till starting concentration. The consistency of the procedure has been tested through comparison of the ^1H-^15N spectra before and after buffer exchange back to starting condition. There was no major structural perturbations resulted from exchange into deuterated buffer conditions. Protein detected experiments with ligand bound used a chemical shift perturbation (CSP) analysis was performed manually in CcpNmr Analysis 2.2.2 [60]. CSP was defined as the distance between two cross peaks in Hz, obtained as the square root of the sum of quadratic using DANGLE [61].
# Backbone resonance assignment of the NS2B:NS3pro with tetra peptide boronic acid (I) was performed as described previously by us with depositing to the BioMagResBank with accession code 26996 [10, 62], and compared with published earlier for the same inhibitor complex but with the linked construct Dengue I NS2B:NS3pro (BioMagResBank with accession code 19305). Backbone resonance assignment have been done in the same manner for the complex NS2B:NS3pro with the tetra peptide tfk ligand (II) as well and will be published elsewhere. Partial assignments of the ^1H and ^15N resonances presented in this publication of the apo form NS2B:NS3pro and its mutants in complex with inhibitors observed to the uncrowded area of the ^1H-^15N spectra are made by the extrapolation of corresponding cross peaks to the closest one known amino acids using CCPN program tool. […]
# DENV2 NS2B:NS3pro [4] = molecular target: T1, DENV2 NS2B:NS3pro; assay: Low field 1D 1H NMR of NS2B:NS3pro complexes (LBHB, H51-D75); type: binding, serotype II Dengue virus (DENV2)
# Experimental: as §2, with “The NMR buffer contained 20 mM deuterated MES, 100 mM NaCl, 5 mM CaCl2, 0.02% NaN3, at pH 6.5.” left out
# as §3
# NS2B:NS3pro (S135A) = assay: 19F and 1H-15N TROSY NMR binding to S135A mutant; design: species or system serotype II Dengue virus (DENV2); settings: 1H-15N TROSY and 19F NMR
# Excerpt: (§4) Reagents were from Sigma (St. Louis, MO, USA) unless otherwise stated. DENV2 NS3pro (1–185; amino acids 1476–1660 of the polyprotein) and NS2B (containing amino acids 1394–1440 of the Dengue 2 polyprotein) constructs were generated as described. H51N and S135A mutations of active site residues were introduced using the QuikChange Lightning kit (Agilent); a double H51N/S135A mutant was generated sequentially. All sequences were confirmed by Sanger sequencing. NS2B and NS3pro were expressed separately in Escherichia coli expression strain BL21Star (DE3) (Life Technologies) as described. Proteins were expressed in Terrific Broth medium (MP Biomedicals) for unlabelled protein or in different isotopic labelling combinations in ^1/2H, ^15N, ^12/13C-labelled M9 medium for labelled protein [54]. […]
# as §1
# NS2B:NS3pro (H51N) = assay: 19F and 1H-15N TROSY NMR binding to H51N mutant; design: species or system serotype II Dengue virus (DENV2); settings: 1H-15N TROSY and 19F NMR, same protein:inhibitor ratio as wild type
# Excerpt: as §4, §1
# DENV2 NS2B:NS3pro [5] = molecular target: T1, DENV2 NS2B:NS3pro; settings: earlier NMR study; cited from earlier work
# Excerpt: The unusual large low-filed shift of N^δ1H (19.93 ppm) of H51 combined with a N-H splitting of only 52 Hz clearly indicated the ...
# DENV2 NS2B:NS3pro [6] = molecular target: T1, DENV2 NS2B:NS3pro; assay: Biochemical protease activity assay, fluorogenic AMC substrate; design: species or system serotype II Dengue virus (DENV2); settings: 50 mM HEPES pH 7.4, 150 mM NaCl, 10% ethylene glycol, 0.05% BSA, 0.0016% Brij-58; 80 nM enzyme; 20 μM Bz-nle-Lys-Arg-Arg-AMC; fluorescence 390/460 nm every 30 s for 30 min; three parameter IC50 fit
# Experimental: Activity assays were carried out on a 96-well plate (white Cliniplate, Thermo Fisher Scientific Oy, Vantaa, Finland) in 50 mM HEPES, pH 7.4, 150 mM NaCl, 10% ethylene glycol, 0.05% BSA, 0.0016% Brij-58 with 80 nM enzyme using 20 μM Bz-nle-Lys-Arg-Arg-AMC (Bachem, Bubendorf, Switzerland) as substrate. Reagents were from Sigma (St. Louis, MO, USA) unless otherwise stated.
# 5 μl of 200 μM substrate in buffer and 2.5 μl of compound in DMSO or DMSO control were added to the plate. 42.5 μl of […] enzyme in buffer was added to start the reaction. Fluorescence was read every 30 s for 30 min at 390 nm excitation and 460 nm emission in a Fluorskan Ascent plate reader (Thermo Fisher Scientific Oy, Vantaa, Finland). Rates were fitted in the Ascent software and exported as Excel files. The rates were imported into GraphPad Prism (GraphPad Software Inc., La Jolla, CA, USA) and fitted to the standard three parameter IC50 equation.
compound,measurement,setting,value
"CCCC[C@H](NC(=O)c1ccccc1)C(=O)N[C@@H](CCCCN)C(=O)N[C@@H](CCCNC(=N)N)C(=O)N[C@@H](CCCNC(=N)N)B(O)O [I, ((3S,6S,9S,12R)-17-amino-6-(4-aminobutyl)-3-butyl-9-(3-guanidinopropyl)-17-imino-1,4,7,10-tetraoxo-1-phenyl-2,5,8,11,16-pentaazaheptadecan-12-yl)boronic acid]",Binding to NS2B:NS3pro / affinity in words (NMR),DENV2 NS2B:NS3pro [1],the former has higher affinity than the latter
same,Bulk water access to active site,DENV2 NS2B:NS3pro [2],bulk water is excluded from the active site
same,H51-HN 1H chemical shift in complex,DENV2 NS2B:NS3pro [3]; apo 10.56 and 10.18 ppm,10.03 ppm
same,H51-HN 15N chemical shift in complex,DENV2 NS2B:NS3pro [3]; apo 114.44 and 114.37 ppm,113.50 ppm
same,Amide CSP of the oxyanion hole,DENV2 NS2B:NS3pro [3]; complex vs apo form,~0.3 ppm
same,Interaction with oxyanion hole,DENV2 NS2B:NS3pro [3]; complex with NS2B:NS3pro,we did not observe interaction of G133 in the oxyanion hole; also recorded: no interaction with the oxyanion hole
same,Decrease of Nδ1H one-bond coupling vs commonly reported serine proteases,DENV2 NS2B:NS3pro [4]; commonly 87-95 Hz,about 38 Hz
same,"One bond JNH of Nδ1H H51, 19.93 ppm signal",DENV2 NS2B:NS3pro [4]; first tautomer,52+/− 2 Hz and 52 Hz
same,One bond JNH of Nε2H H51,DENV2 NS2B:NS3pro [4]; first tautomer,90+/− 2 Hz and 90 Hz
same,"Nδ1H of H51, second tautomer, 1H chemical shift","DENV2 NS2B:NS3pro [4]; most persistent signal, pH 8.5 Tris",19.77 ppm and 19.772 ppm
same,pH dependence of low field 1H chemical shift,DENV2 NS2B:NS3pro [4]; pH 5.5 to 8.5,None of the signals in this region shift between pH 5.5 and 8.5
same,"Nδ1H of H51, first tautomer, 1H chemical shift","DENV2 NS2B:NS3pro [4]; pH 6.0 MES, not always observed",19.93 ppm and 19.933 ppm
same,"One bond JNH of Nδ1H H51, 19.77 ppm signal",DENV2 NS2B:NS3pro [4]; second tautomer,52+/− 2 Hz and 52 Hz
same,Binding to S135A mutant,NS2B:NS3pro (S135A),do not interact with the S135A mutant; also recorded: no binding was observed; also recorded: complete absence of any binding
same,Affinity / complex formation with H51N mutant,NS2B:NS3pro (H51N),saturation of the protease and inhibitor complex could not be reached
same,N-H splitting of Nδ1H of H51,DENV2 NS2B:NS3pro [5],52 Hz
same,NδH shift of H51 in complex,DENV2 NS2B:NS3pro [5],19.93 ppm
"CCCC[C@H](NC(=O)c1c(F)cccc1F)C(=O)N[C@@H](CCCCN)C(=O)N[C@@H](CCCNC(=N)N)C(=O)NC(CCCNC(=N)N)C(=O)C(F)(F)F (stereo partly drawn) [II, N-((9S,12S,15S)-1-amino-12-(4-aminobutyl)-9-(3-guanidinopropyl)-1-imino-8,11,14-trioxo-6-(2,2,2-trifluoroacetyl)-2,7,10,13-tetraazanonadecan-15-yl)-2,6-difluorobenzamide] ({Benzoyl(2,6-F2)}-[Nle]KR[ξR]-CF3)",IC50,DENV2 NS2B:NS3pro [6],19 µM
"CCCC[C@H](NC(=O)c1ccccc1)C(=O)N[C@@H](CCCCN)C(=O)N[C@@H](CCCNC(=N)N)C(=O)NC(CCCNC(=N)N)C(=O)C(F)(F)F (stereo partly drawn) [IV, N-((9S,12S,15S)-1-amino-12-(4-aminobutyl)-9-(3-guanidinopropyl)-1-imino-8,11,14-trioxo-6-(2,2,2-trifluoroacetyl)-2,7,10,13-tetraazanonadecan-15-yl)benzamide] (Bz-[Nle]KR[ξR]-CF3)",IC50,DENV2 NS2B:NS3pro [6],11 µM
"CCCC[C@H](NC(=O)c1ccc(F)cc1)C(=O)N[C@@H](CCCCN)C(=O)N[C@@H](CCCNC(=N)N)C(=O)NC(CCCNC(=N)N)C(=O)C(F)(F)F (stereo partly drawn) [V, N-((9S,12S,15S)-1-amino-12-(4-aminobutyl)-9-(3-guanidinopropyl)-1-imino-8,11,14-trioxo-6-(2,2,2-trifluoroacetyl)-2,7,10,13-tetraazanonadecan-15-yl)-4-fluorobenzamide] ({Benzoyl(4-F)}-[Nle]KR[ξR]-CF3)",IC50,DENV2 NS2B:NS3pro [6],24 µM
"Bz-Nle-Lys-Arg-Arg-CF3-ketone [IVa, isomer IVa of (IV), free 19F at − 82.82 ppm]",Binding to NS2B:NS3pro / affinity in words (NMR),DENV2 NS2B:NS3pro [1],the signal of only one isomer (IVa) re-appeared

# Source: publication PMC7249419, “Probing contacts of inhibitor locked in transition states in the catalytic triad of DENV2 type serine protease and its mutants by 1H, 19F and 15 N NMR spectroscopy” (BMC Molecular and Cell Biology, 2020)
